PubChem BioAssay (NCI)
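Growth conditions: 96-well plates. Treatment: test compound, 48 hours, 5 concentrations. Analysis: linear interpolation between bracketing concentrations; unreached endpoints set to highest concentration. The concentration for 50% growth inhibition is given as GI50. The concentration for full growth arrest is given as TGI.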

What follows are compounds tested on COLO 205 colon (assay: inhibition of tumour cell growth, NCI panel, 48 h).
With CC(=O)Oc1ccccc1C(=O)N=C1[Se]CCN1C(=O)c1ccccc1OC(C)=O the GI50 was 1.84 µM and the TGI was 4.07 µM.
O=S(O)CCCCSSCc1ccccc1CSSCCCCS(=O)O was tested, and the TGI was 31.2 µM.
In the case of O=C(O)Cc1c(O)ccc2ccccc12, the TGI is reported as over 100 µM.
Compound CCOC(=O)c1[nH]c(COC(C)=O)c(CCCOC(C)=O)c1CCCOC(C)=O has a TGI of over 100 µM.
With CSC1(CC(=O)N(C)C)C(=O)Nc2ccccc21 (stereo not given) the TGI was over 100 µM.
C#C[C@]1(O)CC[C@H]2[C@@H]3CC=C4c5sc(Nc6ccccc6)nc5CC[C@]4(C)[C@H]3CC[C@@]21C gave a GI50 of 2.18 µM and a TGI of 5.39 µM.
Compound COc1ccc(/C=c2/sc3n(c2=O)C(c2ccc(OC)c(OC)c2)C2=C(N=3)c3cc(F)ccc3OC2)cc1 (stereo not given) has a GI50 of 30.1 µM and a TGI of over 57.1 µM.
With O=C(Nc1ccc([N+](=O)[O-])cc1)C1C(=O)C(=O)N(c2ccc([N+](=O)[O-])cc2)C1=O (stereo not given) the TGI was over 100 µM.
With Cc1cn2c(/C=C3/C(=O)Nc4ccccc43)c(-c3ccc(Cl)cc3)nc2s1 the GI50 was 10.4 µM and the TGI was 22.2 µM.
O=C(CCC/C(CC(=O)c1ccc(Br)cc1)=N\O)Nc1ccccc1 gave a TGI of over 100 µM.
With O=C(/C=C/c1c(O)ccc2ccccc12)c1ccc2ccccc2c1 the TGI was over 100 µM.
CCOC(=O)C1N(S(=O)(=O)c2ccc(C)cc2)CCC12C(c1ccc(OC)cc1)NC1CCCCC12 (stereo not given) was tested, and the TGI was over 100 µM.
COc1ccccc1NC(=O)C1=C(C)NC(C)=C(C(=O)Nc2ccccc2OC)C1c1ccc([N+](=O)[O-])cc1 was tested, and the TGI was over 100 µM.
Compound Nc1nc(Nc2ccccc2)c2ncn(Cc3cc4c(cc3Br)OCO4)c2n1 has a GI50 of 0.0716 µM and a TGI of 0.375 µM.
In the case of O=C(CSc1nnc(-c2ccccc2NC(=O)C(F)(F)F)c(=O)[nH]1)NC(=O)Nc1ccccc1, the TGI is reported as over 100 µM.
In the case of O=C1c2ccn(CCCCNC(CO)(CO)CO)c2C(=O)c2c1c(O)c1ccccc1c2O, the GI50 is reported as 0.912 µM and the TGI is reported as over 23.6 µM.
With COC(=O)/C=C/C1C(C(=O)OC)C2(C(=O)OC)CCC1(C(=O)OC)N2 (stereo not given) the TGI was over 100 µM.
Work on CC(C)(C)N1CC2(CCCCC2)C1=O yielded a TGI of over 100 µM.
With COc1ccc(-c2cc(-c3cccn3C)c(C#N)c(N)n2)cc1OC the GI50 was over 100 µM and the TGI was over 100 µM.
Compound C#CC(=O)Nc1cccc(Nc2nc3c(c(NCc4ccccc4)n2)CCCC3)c1 has a GI50 of 0.401 µM and a TGI of 1.14 µM.
For COc1ccc(C(=O)C(CO)Oc2ccccc2OC)cc1OC (stereo not given), the TGI was over 100 µM.
In the case of N#CC(/C(=N/NC(=O)C(=O)NN)C(=O)NC12CC3CC(CC(C3)C1)C2)c1ccccc1 (stereo not given), the TGI is reported as over 100 µM.
With CN=NN(C)C(=O)NC the TGI was over 100 µM.
Nc1c(C(=O)N/N=C/c2ccc(-c3ccc(Cl)cc3)o2)cnn1-c1ccnc2c(C(F)(F)F)cccc12 was tested, and the GI50 was over 100 µM and the TGI was over 100 µM.
In the case of c1ccc2c3ccn4cc5c(cc4c-3nc2c1)CCCC5, the GI50 is reported as 2.37 µM and the TGI is reported as 6.16 µM.
With CCCCCCCCCc1cc(=O)c2c(O)cccc2o1 the TGI was over 100 µM.
CCOC(=O)CCc1c(C)c2c(OC(C)=O)cc(OC(C)=O)cc2oc1=O showed a TGI of over 100 µM.
In the case of COC(=O)C12C3C4C5(C(=O)OC)C(C1C35C(=O)N(C(C)C)C(C)C)C42C(=O)N(C(C)C)C(C)C (stereo not given), the TGI is reported as over 50 µM.
Compound COc1ccc(C2C(C#N)=C(N)OC3=C2COc2ccc(F)cc23)cc1OC (stereo not given) has a GI50 of 19.1 µM and a TGI of over 100 µM.
Compound Cc1cc(C)n(CCNCCn2nc(C)cc2C)n1 has a TGI of over 100 µM.
For O=C1CSC(Cc2nc3ccccc3[nH]2)=N1, the TGI was 50 µM.
O=C(/C=C/c1ccccc1)/C=C/c1ccccc1 gave a TGI of over 100 µM.
Work on N#C/C(=C\c1ccc(O)c(O)c1)C(N)=O yielded a TGI of over 100 µM.
For CCOC(=O)C1=C(C)N(N)C(=S)NC1c1ccc(C)cc1 (stereo not given), the GI50 was 33.5 µM and the TGI was over 100 µM.
N#CC(C(=O)/C(=N/Nc1nc(=S)[nH]n1N)C(C#N)c1ccccc1)c1ccccc1 (stereo not given) gave a TGI of over 100 µM.
Work on O=C(O)c1ccccc1-c1ccccc1C(=O)Nc1ccc2c(c1)Cc1cc(F)ccc1-2 yielded a TGI of 32.7 µM.
CN(C)Cc1c[nH]c2c1C(=O)c1c(c(O)c3ccccc3c1O)C2=O showed a GI50 of 0.0386 µM and a TGI of over 100 µM.
N#CC(C#N)=c1[nH]c2cccc3c2-c2c(cccc2c3=C(C#N)C#N)[nH]1 was tested, and the TGI was over 100 µM.

The compounds below were run on M14 melanoma (assay: inhibition of tumour cell growth, NCI panel, 48 h).
With CC(=O)Oc1ccccc1C(=O)N=C1[Se]CCN1C(=O)c1ccccc1OC(C)=O the GI50 was 0.523 µM and the TGI was 2.2 µM.
O=S(O)CCCCSSCc1ccccc1CSSCCCCS(=O)O showed a TGI of 26.7 µM.
In the case of O=C(O)Cc1c(O)ccc2ccccc12, the TGI is reported as over 100 µM.
CSC1(CC(=O)N(C)C)C(=O)Nc2ccccc21 (stereo not given) was tested, and the TGI was over 100 µM.
C#C[C@]1(O)CC[C@H]2[C@@H]3CC=C4c5sc(Nc6ccccc6)nc5CC[C@]4(C)[C@H]3CC[C@@]21C was tested, and the GI50 was 1.6 µM and the TGI was 4.51 µM.
Work on COc1ccc(/C=c2/sc3n(c2=O)C(c2ccc(OC)c(OC)c2)C2=C(N=3)c3cc(F)ccc3OC2)cc1 (stereo not given) yielded a GI50 of 36.9 µM and a TGI of over 100 µM.
For O=C(Nc1ccc([N+](=O)[O-])cc1)C1C(=O)C(=O)N(c2ccc([N+](=O)[O-])cc2)C1=O (stereo not given), the TGI was over 100 µM.
In the case of Cc1cn2c(/C=C3/C(=O)Nc4ccccc43)c(-c3ccc(Cl)cc3)nc2s1, the GI50 is reported as 8.39 µM and the TGI is reported as 15.2 µM.
O=C(CCC/C(CC(=O)c1ccc(Br)cc1)=N\O)Nc1ccccc1 showed a TGI of over 100 µM.
For CCOC(=O)C1N(S(=O)(=O)c2ccc(C)cc2)CCC12C(c1ccc(OC)cc1)NC1CCCCC12 (stereo not given), the TGI was over 100 µM.
Work on COc1ccccc1NC(=O)C1=C(C)NC(C)=C(C(=O)Nc2ccccc2OC)C1c1ccc([N+](=O)[O-])cc1 yielded a TGI of over 100 µM.
O=C(CSc1nnc(-c2ccccc2NC(=O)C(F)(F)F)c(=O)[nH]1)NC(=O)Nc1ccccc1 gave a TGI of over 100 µM.
O=C1c2ccn(CCCCNC(CO)(CO)CO)c2C(=O)c2c1c(O)c1ccccc1c2O showed a GI50 of 1.86 µM and a TGI of 3.59 µM.
Compound COC(=O)/C=C/C1C(C(=O)OC)C2(C(=O)OC)CCC1(C(=O)OC)N2 (stereo not given) has a TGI of over 100 µM.
For CC(C)(C)N1CC2(CCCCC2)C1=O, the TGI was over 100 µM.
In the case of C#CC(=O)Nc1cccc(Nc2nc3c(c(NCc4ccccc4)n2)CCCC3)c1, the GI50 is reported as 0.261 µM and the TGI is reported as 1.22 µM.
Compound COc1ccc(C(=O)C(CO)Oc2ccccc2OC)cc1OC (stereo not given) has a TGI of over 100 µM.
N#CC(/C(=N/NC(=O)C(=O)NN)C(=O)NC12CC3CC(CC(C3)C1)C2)c1ccccc1 (stereo not given) was tested, and the TGI was over 100 µM.
CC(C)(C)C(=O)/C=C/c1ccc(Oc2ccccc2)cc1 was tested, and the TGI was 34.5 µM.
CN=NN(C)C(=O)NC showed a TGI of over 100 µM.
With Nc1c(C(=O)N/N=C/c2ccc(-c3ccc(Cl)cc3)o2)cnn1-c1ccnc2c(C(F)(F)F)cccc12 the GI50 was over 100 µM and the TGI was over 100 µM.
Work on c1ccc2c3ccn4cc5c(cc4c-3nc2c1)CCCC5 yielded a TGI of 6.41 µM.
For CCCCCCCCCc1cc(=O)c2c(O)cccc2o1, the TGI was over 100 µM.
CCOC(=O)CCc1c(C)c2c(OC(C)=O)cc(OC(C)=O)cc2oc1=O gave a TGI of over 100 µM.
Work on O=C(CN1CCCCC1)N1CCc2c([nH]c3ccccc23)C1c1cccnc1 (stereo not given) yielded a TGI of over 100 µM.
COC(=O)C12C3C4C5(C(=O)OC)C(C1C35C(=O)N(C(C)C)C(C)C)C42C(=O)N(C(C)C)C(C)C (stereo not given) was tested, and the TGI was over 50 µM.
With COc1ccc(C2C(C#N)=C(N)OC3=C2COc2ccc(F)cc23)cc1OC (stereo not given) the GI50 was 40.1 µM and the TGI was over 100 µM.
With Cc1cc(C)n(CCNCCn2nc(C)cc2C)n1 the TGI was over 100 µM.
O=C1CSC(Cc2nc3ccccc3[nH]2)=N1 showed a TGI of 33.4 µM.
O=C(/C=C/c1ccccc1)/C=C/c1ccccc1 was tested, and the TGI was 39.8 µM.
Compound N#C/C(=C\c1ccc(O)c(O)c1)C(N)=O has a TGI of over 100 µM.
CCOC(=O)C1=C(C)N(N)C(=S)NC1c1ccc(C)cc1 (stereo not given) showed a GI50 of 27.5 µM and a TGI of over 100 µM.
With N#CC(C(=O)/C(=N/Nc1nc(=S)[nH]n1N)C(C#N)c1ccccc1)c1ccccc1 (stereo not given) the TGI was over 100 µM.
For O=C(O)c1ccccc1-c1ccccc1C(=O)Nc1ccc2c(c1)Cc1cc(F)ccc1-2, the TGI was 40 µM.
In the case of CN(C)Cc1c[nH]c2c1C(=O)c1c(c(O)c3ccccc3c1O)C2=O, the GI50 is reported as 17.2 µM and the TGI is reported as 40.4 µM.
N#CC(C#N)=c1[nH]c2cccc3c2-c2c(cccc2c3=C(C#N)C#N)[nH]1 showed a TGI of over 100 µM.

What follows are compounds tested on SF-539 CNS (assay: inhibition of tumour cell growth, NCI panel, 48 h).
Work on CC(=O)Oc1ccccc1C(=O)N=C1[Se]CCN1C(=O)c1ccccc1OC(C)=O yielded a GI50 of 1.06 µM and a TGI of 3.21 µM.
Work on O=S(O)CCCCSSCc1ccccc1CSSCCCCS(=O)O yielded a TGI of 64.2 µM.
Compound O=C(O)Cc1c(O)ccc2ccccc12 has a TGI of over 100 µM.
Compound CCOC(=O)c1[nH]c(COC(C)=O)c(CCCOC(C)=O)c1CCCOC(C)=O has a TGI of over 100 µM.
With CSC1(CC(=O)N(C)C)C(=O)Nc2ccccc21 (stereo not given) the TGI was over 100 µM.
For C#C[C@]1(O)CC[C@H]2[C@@H]3CC=C4c5sc(Nc6ccccc6)nc5CC[C@]4(C)[C@H]3CC[C@@]21C, the GI50 was 0.37 µM and the TGI was 1.52 µM.
With COc1ccc(/C=c2/sc3n(c2=O)C(c2ccc(OC)c(OC)c2)C2=C(N=3)c3cc(F)ccc3OC2)cc1 (stereo not given) the GI50 was 43 µM and the TGI was over 100 µM.
O=C(Nc1ccc([N+](=O)[O-])cc1)C1C(=O)C(=O)N(c2ccc([N+](=O)[O-])cc2)C1=O (stereo not given) gave a TGI of over 100 µM.
In the case of Cc1cn2c(/C=C3/C(=O)Nc4ccccc43)c(-c3ccc(Cl)cc3)nc2s1, the GI50 is reported as 5.8 µM and the TGI is reported as 11.9 µM.
